Test results taken from US7973080B2 (Ambria Dermatology AB, priority 2003, dated 2011).

Columns and labels:
Test in all cases: MIC by standard blood agar dilution technique
Enterococcus = details: MR fuc +
Source text: (§1) The following bacteria were investigated: methicillin-resistant Staphylococcus aureus (MSRA), fucidic acid-resistant S. aureus, non-resistant S. pyogenes, coagulation-negative staphylococci (for resistance, see Table 1 below) vancomycin-resistant enterococci (Enterococcus CCUG van A and van B), non-resistant Escherichia coli, Acinetobacter resistant against cefadroxil, nitrofurantin, mecillinam, Serratia maltophilia resistant against most types of antibiotics, Enterobacter (for resistance, see Table 1 below; additionally resistant against cefadroxil and nitrofurantin), non-resistant α-streptococci, non-resistant Streptococcus Group G, Pseudomonas aeruginosa (for resistance, see Table 2 below). Inocula of 10^3 and 10^5 bacteria were used.

Streptococcus group G = details: inoculate size 10^3
Source text: as §1

[1] = tested on: coagulation-negative staphylococci
Source text: as §1

Streptococcus group C = details: inoculate size 10^3
Source text: as §1

Alphastreptococci = details: inoculate size 10^3
Source text: as §1

Escherichia coli = tested on: Escherichia coli
Source text: as §1

For `OCCCCCO` [pentane-1,5-diol], which “MIC (% by weight of pentane-1,5-diol)” value (Enterococcus; Enterococcus 921 × 57022, inoculate size 10^3, van −, cip +, tri +) is on record?
The value was 5.0 % by weight.

And the “MIC (% by weight of pentane-1,5-diol)” value (Enterococcus; Enterococcus 921 × 57022, inoculate size 10^5, van −, cip +, tri +)?
The value was 7.5 % by weight.

What about the “MIC (% by weight of pentane-1,5-diol)” value (Enterococcus; Enterococcus 921 × 57057, inoculate size 10^3, van −, tri −) of the same compound?
Its value is 7.5 % by weight.

And the “MIC (% by weight of pentane-1,5-diol)” value (Enterococcus; Enterococcus 921 × 57057, inoculate size 10^5, van −, tri −)?
Its value is 10.9 % by weight.

What about the “MIC (% by weight of pentane-1,5-diol)” value (Enterococcus; Enterococcus 921 × 57093, inoculate size 10^3, van −, tri +) of the same compound?
Its value is 7.5 % by weight.

What about the “MIC (% by weight of pentane-1,5-diol)” value (Enterococcus; Enterococcus 921 × 57093, inoculate size 10^5, van −, tri +) of the same compound?
The value was 10.0 % by weight.

What about the “MIC (% by weight of pentane-1,5-diol)” value (Enterococcus; Enterococcus 921 × 57158, inoculate size 10^3, van −, tri +) of the same compound?
Its value is 7.5 % by weight.

What about the “MIC (% by weight of pentane-1,5-diol)” value (Enterococcus; Enterococcus 921 × 57158, inoculate size 10^5, van −, tri +) of the same compound?
The value was 7.5 % by weight.

And the “MIC (% by weight of pentane-1,5-diol)” value (Enterococcus; Enterococcus CCUG 37593 vanB, inoculate size 10^3, van +)?
Its value is 5.0 % by weight.

And the “MIC (% by weight of pentane-1,5-diol)” value (Enterococcus; Enterococcus CCUG 37593 vanB, inoculate size 10^5, van +)?
The value was 7.5 % by weight.

And the “MIC (% by weight of pentane-1,5-diol)” value (Enterococcus; Enterococcus CCUG 37832 vanA, inoculate size 10^3, van +)?
Its value is 5.0 % by weight.

And the “MIC (% by weight of pentane-1,5-diol)” value (Enterococcus; Enterococcus CCUG 37832 vanA, inoculate size 10^5, van +)?
The value was 7.5 % by weight.

What about the “MIC (% by weight of pentane-1,5-diol)” value (Enterococcus; Enterococcus CCUG 39128 vanA, inoculate size 10^3, van +) of the same compound?
The value was 5.0 % by weight.

And the “MIC (% by weight of pentane-1,5-diol)” value (Enterococcus; Enterococcus CCUG 39128 vanA, inoculate size 10^5, van +)?
Its value is 10.0 % by weight.

What about the “MIC (% by weight of pentane-1,5-diol)” value (Enterococcus; Enterococcus CCUG 43324 vanA, inoculate size 10^3, van +) of the same compound?
Its value is 7.5 % by weight.

And the “MIC (% by weight of pentane-1,5-diol)” value (Enterococcus; Enterococcus CCUG 43324 vanA, inoculate size 10^5, van +)?
The value was 10.0 % by weight.

And the “MIC (% by weight of pentane-1,5-diol)” value (Streptococcus group G; Strepotocccus group G 912 × 1106)?
Its value is 7.5 % by weight.

What about the “MIC (% by weight of pentane-1,5-diol)” value (Streptococcus group G; Streptococcus group G 900 × 1714) of the same compound?
The value was 10.0 % by weight.

What about the “MIC (% by weight of pentane-1,5-diol)” value (Streptococcus group G; Streptococcus group G 915 × 1095) of the same compound?
Its value is 7.5 % by weight.

And the “MIC (% by weight of pentane-1,5-diol)” value (Streptococcus group G; Streptococcus group G 915 × 1146)?
The value was 7.5 % by weight.

And the “MIC (% by weight of pentane-1,5-diol)” value (Streptococcus group G; Streptococcus group G 916 × 10985)?
The value was 7.5 % by weight.

What about the “MIC (% by weight of pentane-1,5-diol)” value ([1]; Coag.neg.staph. 900 × 5515, inoculate size 10^3, MR fuc +) of the same compound?
Its value is 12.5 % by weight.

What about the “MIC (% by weight of pentane-1,5-diol)” value ([1]; Coag.neg.staph. 900 × 5515, inoculate size 10^5, MR fuc +) of the same compound?
The value was 15.0 % by weight.

And the “MIC (% by weight of pentane-1,5-diol)” value ([1]; Coag.neg.staph. 900 × 5516, inoculate size 10^3, MR fuc −)?
Its value is 7.5 % by weight.

And the “MIC (% by weight of pentane-1,5-diol)” value ([1]; Coag.neg.staph. 900 × 5516, inoculate size 10^5, MR fuc −)?
Its value is 12.5 % by weight.

What about the “MIC (% by weight of pentane-1,5-diol)” value ([1]; Coag.neg.staph. 900 × 5525, inoculate size 10^5, MR fuc −) of the same compound?
The value was 7.5 % by weight.

What about the “MIC (% by weight of pentane-1,5-diol)” value ([1]; Coag.neg.staph. 900 × 5538, inoculate size 10^3, MR fuc −) of the same compound?
Its value is 5.0 % by weight.

And the “MIC (% by weight of pentane-1,5-diol)” value ([1]; Coag.neg.staph. 900 × 5538, inoculate size 10^5, MR fuc −)?
Its value is 12.5 % by weight.

What about the “MIC (% by weight of pentane-1,5-diol)” value ([1]; Coag.neg.staph. 900 × 5539, inoculate size 10^3, MR fuc −) of the same compound?
Its value is 7.5 % by weight.

And the “MIC (% by weight of pentane-1,5-diol)” value ([1]; Coag.neg.staph. 900 × 5539, inoculate size 10^5, MR fuc −)?
Its value is 10.0 % by weight.

And the “MIC (% by weight of pentane-1,5-diol)” value ([1]; Coag.neg.staph. 902 × 14176 large, inoculate size 10^3, MR fuc −)?
Its value is 7.5 % by weight.

What about the “MIC (% by weight of pentane-1,5-diol)” value ([1]; Coag.neg.staph. 902 × 14176 large, inoculate size 10^5, MR fuc −) of the same compound?
Its value is 20.0 % by weight.

And the “MIC (% by weight of pentane-1,5-diol)” value ([1]; Coag.neg.staph. 902 × 14176 small, inoculate size 10^3, MR fuc +)?
Its value is 7.5 % by weight.

And the “MIC (% by weight of pentane-1,5-diol)” value ([1]; Coag.neg.staph. 902 × 14176 small, inoculate size 10^5, MR fuc +)?
Its value is 10.0 % by weight.

And the “MIC (% by weight of pentane-1,5-diol)” value ([1]; Coag.neg.staph. 904 × 2816, inoculate size 10^3, MR fuc +)?
Its value is 10.0 % by weight.

And the “MIC (% by weight of pentane-1,5-diol)” value ([1]; Coag.neg.staph. 904 × 2816, inoculate size 10^5, MR fuc +)?
The value was 17.5 % by weight.

What about the “MIC (% by weight of pentane-1,5-diol)” value ([1]; Coag.neg.staph. 916 × 8132, inoculate size 10^3, MR fuc −) of the same compound?
Its value is 7.5 % by weight.

And the “MIC (% by weight of pentane-1,5-diol)” value ([1]; Coag.neg.staph. 916 × 8132, inoculate size 10^5, MR fuc −)?
Its value is 12.5 % by weight.

What about the “MIC (% by weight of pentane-1,5-diol)” value ([1]; Coag.neg.staph. 916 × 8188, inoculate size 10^3, MR fuc −) of the same compound?
The value was 15.0 % by weight.

What about the “MIC (% by weight of pentane-1,5-diol)” value ([1]; Coag.neg.staph. 916 × 8188, inoculate size 10^5, MR fuc −) of the same compound?
Its value is 17.5 % by weight.

And the “MIC (% by weight of pentane-1,5-diol)” value (Streptococcus group C; Streptococcus group C 900 × 1618)?
The value was 7.5 % by weight.

What about the “MIC (% by weight of pentane-1,5-diol)” value (Streptococcus group C; Streptococcus group C 912 × 1114) of the same compound?
The value was 10.0 % by weight.

What about the “MIC (% by weight of pentane-1,5-diol)” value (Streptococcus group C; Streptococcus group C 912 × 1185) of the same compound?
Its value is 10.0 % by weight.

And the “MIC (% by weight of pentane-1,5-diol)” value (Alphastreptococci; Alphastreptococci 912 × 1135)?
The value was 7.5 % by weight.

What about the “MIC (% by weight of pentane-1,5-diol)” value (Alphastreptococci; Alphastreptococci 912 × 1137) of the same compound?
The value was 5.0 % by weight.

What about the “MIC (% by weight of pentane-1,5-diol)” value (Alphastreptococci; Alphastreptococci 912 × 1138) of the same compound?
Its value is 5.0 % by weight.

What about the “MIC (% by weight of pentane-1,5-diol)” value (Alphastreptococci; Alphastreptococci 912 × 1139) of the same compound?
Its value is 7.5 % by weight.

What about the “MIC (% by weight of pentane-1,5-diol)” value (Alphastreptococci; Alphastreptococci 912 × 1200) of the same compound?
The value was 7.5 % by weight.

And the “MIC (% by weight of pentane-1,5-diol)” value (Escherichia coli; E. coli 921 × 57387, inoculate size 10^3, MR tri +)?
Its value is 5.0 % by weight.

And the “MIC (% by weight of pentane-1,5-diol)” value (Escherichia coli; E. coli 921 × 57387, inoculate size 10^5, MR tri +)?
The value was 10.0 % by weight.

What about the “MIC (% by weight of pentane-1,5-diol)” value (Escherichia coli; E. coli 921 × 57388, inoculate size 10^3) of the same compound?
The value was 5.0 % by weight.

What about the “MIC (% by weight of pentane-1,5-diol)” value (Escherichia coli; E. coli 921 × 57388, inoculate size 10^5) of the same compound?
The value was 10.0 % by weight.

And the “MIC (% by weight of pentane-1,5-diol)” value (Escherichia coli; E. coli 921 × 57389, inoculate size 10^3)?
Its value is 5.0 % by weight.

What about the “MIC (% by weight of pentane-1,5-diol)” value (Escherichia coli; E. coli 921 × 57389, inoculate size 10^5) of the same compound?
The value was 10.0 % by weight.

And the “MIC (% by weight of pentane-1,5-diol)” value (Escherichia coli; E. coli 921 × 57397, inoculate size 10^3)?
The value was 5.0 % by weight.

And the “MIC (% by weight of pentane-1,5-diol)” value (Escherichia coli; E. coli 921 × 57397, inoculate size 10^5)?
The value was 10.0 % by weight.

What about the “MIC (% by weight of pentane-1,5-diol)” value (Escherichia coli; E. coli 921 × 57418, inoculate size 10^3) of the same compound?
The value was 5.0 % by weight.

What about the “MIC (% by weight of pentane-1,5-diol)” value (Escherichia coli; E. coli 921 × 57418, inoculate size 10^5) of the same compound?
Its value is 10.0 % by weight.
